Measurements published in patent US20230126893A1, “[(1,4,5-TRISUBSTITUTED-1H-PYRAZOL-3-YL)SULFANYL]ACETIC ACID DERIVATIVES, SALTS THEREOF, AND USE THEREOF AS ACTIVE HERBICIDAL INGREDIENTS” (BAYER AKTIENGESELLSCHAFT, priority 2020, published 2023).

Experiments:
Assay type in all cases: in vivo
Veronica persica [1] = test: Pre-emergence herbicidal effect against VERPE; settings: 1280 g/ha, visual score after 3 weeks, 100% = plants have died, 0% = like control plants
From the text: (§1) 1. Pre-emergence herbicidal effect and crop plant compatibility Seeds of monocotyledonous and dicotyledonous weed plants and crop plants are laid out in sandy loam soil in wood-fibre pots and covered with soil. The compounds of the invention, formulated in the form of wettable powders (WP) or as emulsion concentrates (EC), are then applied to the surface of the covering soil as aqueous suspension or emulsion at a water application rate equating to 600 to 800 L/ha with addition of 0.2% wetting agent. After the treatment, the pots are placed in a greenhouse and kept under good growth conditions for the trial plants. The damage to the test plants is scored visually after a test period of 3 weeks by comparison with untreated controls (herbicidal activity in percent (%): 100% activity=the plants have died, 0% activity=like control plants). [table]

Stellaria media [2] = test: Post-emergence herbicidal effect against STEME; settings: 1280 g/ha, visual assessment about 3 weeks after treatment, 100% = plants have died, 0% = like control plants
Protocol: (§2) [table] 2. Post-emergence herbicidal effect and crop plant compatibility Seeds of monocotyledonous and dicotyledonous weed and crop plants are laid out in sandy loam soil in wood-fibre pots, covered with soil and cultivated in a greenhouse under good growth conditions. 2 to 3 weeks after sowing, the test plants are treated at the one-leaf stage. The compounds of the invention, formulated in the form of wettable powders (WP) or as emulsion concentrates (EC), are then sprayed onto the green parts of the plants as aqueous suspension or emulsion at a water application rate equating to 600 to 800 l/ha with addition of 0.2% wetting agent. After the test plants have been left to stand in the greenhouse under optimal growth conditions for about 3 weeks, the action of the preparations is assessed visually in comparison to untreated controls (herbicidal action in percent (%): 100% activity=the plants have died, 0% activity=like control plants).

[3] = system: Tripleurospermum inodorum; test: Post-emergence herbicidal effect against MATIN; settings: 1280 g/ha, visual assessment about 3 weeks after treatment, 100% = plants have died, 0% = like control plants
Protocol: as §2

Setaria viridis [4] = test: Pre-emergence herbicidal effect against SETVI; settings: 1280 g/ha, visual score after 3 weeks, 100% = plants have died, 0% = like control plants
From the text: as §1

Digitaria sanguinalis [5] = test: Post-emergence herbicidal effect against DIGSA; settings: 1280 g/ha, visual score after about 3 weeks, 100% = plants have died, 0% = like control plants
Protocol: as §2

Veronica persica [6] = test: Post-emergence herbicidal effect against VERPE; settings: 1280 g/ha, visual assessment about 3 weeks after treatment, 100% = plants have died, 0% = like control plants
Protocol: as §2

Alopecurus myosuroides [7] = test: Post-emergence herbicidal effect against ALOMY; settings: 1280 g/ha, visual score after about 3 weeks, 100% = plants have died, 0% = like control plants
Protocol: as §2

Echinochloa crus-galli [8] = test: Pre-emergence herbicidal effect against ECHCG; settings: 1280 g/ha, visual score after 3 weeks, 100% = plants have died, 0% = like control plants
From the text: as §1

Lolium rigidum = test: Pre-emergence herbicidal effect against LOLRI; settings: 1280 g/ha, visual score after 3 weeks, 100% = plants have died, 0% = like control plants
From the text: as §1

Echinochloa crus-galli [9] = test: Post-emergence herbicidal effect against ECHCG; settings: 1280 g/ha, visual score after about 3 weeks, 100% = plants have died, 0% = like control plants
Protocol: as §2

[10] = system: Tripleurospermum inodorum; test: Pre-emergence herbicidal effect against MATIN; settings: 1280 g/ha, visual score after 3 weeks, 100% = plants have died, 0% = like control plants
From the text: as §1

Poa annua [11] = test: Post-emergence herbicidal effect against POAAN; settings: 1280 g/ha, visual assessment about 3 weeks after treatment, 100% = plants have died, 0% = like control plants
Protocol: as §2

Stellaria media [12] = test: Pre-emergence herbicidal effect against STEME; settings: 1280 g/ha, visual score after 3 weeks, 100% = plants have died, 0% = like control plants
From the text: as §1

Alopecurus myosuroides [13] = test: Pre-emergence herbicidal effect against ALOMY; settings: 1280 g/ha, visual score after 3 weeks, 100% = plants have died, 0% = like control plants
From the text: as §1

Poa annua [14] = test: Pre-emergence herbicidal effect against POAAN; settings: 1280 g/ha, visual score after 3 weeks, 100% = plants have died, 0% = like control plants
From the text: as §1

Digitaria sanguinalis [15] = test: Pre-emergence herbicidal effect against DIGSA; settings: 1280 g/ha, visual score after 3 weeks, 100% = plants have died, 0% = like control plants
From the text: as §1

Amaranthus retroflexus = test: Pre-emergence herbicidal effect against AMARE; settings: 1280 g/ha, visual score after 3 weeks, 100% = plants have died, 0% = like control plants
From the text: as §1

Setaria viridis [16] = test: Post-emergence herbicidal effect against SETVI; settings: 1280 g/ha, visual assessment about 3 weeks after treatment, 100% = plants have died, 0% = like control plants
Protocol: as §2

Bassia scoparia = test: Post-emergence herbicidal effect against KCHSC; settings: 1280 g/ha, visual assessment about 3 weeks after treatment, 100% = plants have died, 0% = like control plants
Protocol: as §2

Abutylon threophrasti = test: Post-emergence herbicidal effect against ABUTH; settings: 1280 g/ha, visual assessment about 3 weeks after treatment, 100% = plants have died, 0% = like control plants
Protocol: as §2

Structure (SMILES) | Pre-emergence action against VERPE (Veronica persica [1]) [%] | Post-emergence action against STEME (Stellaria media [2]) [%] | Post-emergence action against MATIN [3] [%] | Pre-emergence action against SETVI (Setaria viridis [4]) [%] | Post-emergence action against DIGSA (Digitaria sanguinalis [5]) [%] | Post-emergence action against VERPE (Veronica persica [6]) [%] | Post-emergence action against ALOMY (Alopecurus myosuroides [7]) [%] | Pre-emergence action against ECHCG (Echinochloa crus-galli [8]) [%] | Pre-emergence action against LOLRI (Lolium rigidum) [%] | Post-emergence action against ECHCG (Echinochloa crus-galli [9]) [%] | Pre-emergence action against MATIN [10] [%] | Post-emergence action against POAAN (Poa annua [11]) [%] | Pre-emergence action against STEME (Stellaria media [12]) [%] | Pre-emergence action against ALOMY (Alopecurus myosuroides [13]) [%] | Pre-emergence action against POAAN (Poa annua [14]) [%] | Pre-emergence action against DIGSA (Digitaria sanguinalis [15]) [%] | Pre-emergence action against AMARE (Amaranthus retroflexus) [%] | Post-emergence action against SETVI (Setaria viridis [16]) [%] | Post-emergence action against KCHSC (Bassia scoparia) [%] | Post-emergence action against ABUTH (Abutylon threophrasti) [%]
O=C(O)CSc1nn(-c2ccccc2F)c(-c2ccc(Cl)nc2)c1Br [II-016] | 90 | 100 | 100 | 100 | 100 | 100 | 100 | 100 | 100 | 100 | 100 | 100 | 100 | 90 | 100 | 100 | – | – | – | –
O=C(O)CSc1nn(-c2ccccc2)c(-c2cncnc2)c1Br [III-002] | 100 | 90 | 90 | 100 | – | 100 | – | 100 | – | – | 100 | 100 | 100 | – | 100 | 100 | 100 | – | – | –
O=C(O)CSc1nn(-c2ccccc2F)c(-c2ccc(F)c(F)c2)c1[N+](=O)[O-] [Example I-024] | 100 | – | 100 | 100 | 100 | 100 | 100 | 90 | 100 | 90 | 100 | 100 | 100 | 90 | 100 | 100 | – | 100 | 90 | 90
Cc1cnsc1-c1c(Br)c(SCC(=O)O)nn1-c1ccccc1F [Example V-002] | – | – | – | 100 | – | – | – | – | – | – | 100 | – | – | – | 100 | – | 100 | – | – | –
COC(=O)CNC(=O)CSc1nn(-c2ccccc2F)c(-c2ccc(F)c(F)c2)c1Cl [VII-001] | 100 | 90 | 90 | 100 | 100 | 90 | 100 | – | 100 | 100 | 100 | 100 | 100 | 90 | 100 | 100 | – | 90 | 90 | 90
CCOC(=O)CSc1nn(-c2ccc(F)cc2F)c(-c2ccc(F)c(F)c2)c1Br [Example I-027] | 90 | 90 | – | 100 | 100 | 100 | 100 | – | 90 | – | 100 | 90 | 100 | – | 100 | 100 | – | – | 90 | –
CCOC(=O)CSc1nn(-c2cc(F)ccc2F)c(-c2ccc(F)cc2)c1Br [Example I-020] | 100 | 90 | 90 | 100 | 90 | 90 | 100 | – | 100 | 90 | 100 | 90 | 100 | 90 | 100 | 100 | – | 90 | 90 | –
CCOC(=O)CSc1nn(-c2ccccc2F)c(-c2ccc(F)c(F)c2)c1C(F)(F)F [Example I-018] | 100 | – | 90 | 100 | 90 | 100 | – | 100 | 100 | 90 | 100 | 100 | 100 | 90 | 100 | 100 | – | 100 | – | 90
